# In US20050288347A1, “Certain triazole-based compounds, compositions, and uses thereof” (priority 2004, published 2005):
# Entries after “also recorded” stand apart in the source; their conditions may differ.
# Molecular target: protein kinase
# Assay: HTS ATP-utilizing enzyme assay, off-chip mobility-shift format (Caliper HTS 250)
# Type: biochemical, human
# Conditions: kinase(s) for which the compound exhibits protein kinase inhibitory activity; test compound 10 μM; active = greater than three-sigma from the mean activity of inactive compounds
# Method in brief: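 Single-point screen at 10 μM compound in HEPES pH 7.5 buffer with Triton X-100 and BSA, 2.5 h at 20–22 °C. Substrate-to-phosphopeptide ratio measured by off-chip microfluidic mobility shift; EDTA wells as 100% and DMSO wells as 0% control, hits called at three-sigma limits.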
row,Kinase,Compound
1,AURORA-A,"COc1ccccc1-n1c(S)nnc1-c1cccnc1 [4-(2-methoxyphenyl)-5-(pyridin-3-yl)-4H-1,2,4-triazole-3-thiol]"
2,AURORA-A,"Sc1nnc(C2CCCCC2)n1-c1cccc(Cl)c1 [4-(3-chlorophenyl)-5-cyclohexyl-4H-1,2,4-triazole-3-thiol]"
3,CDK5 and CDK2-cyclinA and CDK2-cyclinE,"Oc1ccc(-c2nnc(S)n2-c2cccc(Cl)c2)cc1 [4-(4-(3-chlorophenyl)-5-mercapto-4H-1,2,4-triazol-3-yl)phenol]"

# Same assay, conditions: test compound 10 μM; active = activity greater than three-sigma from the mean of the predominately inactive population for that enzyme
row,protein kinase against which the compound exhibits inhibitory activity (Table 3),Compound
1,AURORA-A; also recorded: c-TAK1,"C=CCCc1nnc(SCc2ccccc2)n1Cc1ccc(Cl)c(Cl)c1 [3-(benzylthio)-5-(but-3-enyl)-4-(3,4-dichlorobenzyl)-4H-1,2,4-triazole]"
2,c-TAK1,"Clc1ccc(Cn2c(SCc3ccccc3)nnc2C2CCCCC2)cc1Cl [3-(benzylthio)-5-cyclohexyl-4-(3,4-dichlorobenzyl)-4H-1,2,4-triazole]"
3,AURORA-A; also recorded: DYRK2,"Cc1nnc(SCc2ccccc2)[nH]1 [3-(benzylthio)-5-methyl-4H-1,2,4-triazole]"
4,AURORA-A,"c1ccc(CCSc2nnc(-c3ccc(-c4ccccc4)cc3)[nH]2)cc1 [3-(biphenyl-4-yl)-5-(phenethylthio)-4H-1,2,4-triazole]"
5,AURORA-A; also recorded: GSK3-α,"CCCCSc1nnc(-c2ccc([N+](=O)[O-])cc2)[nH]1 [3-(butylthio)-5-(4-nitrophenyl)-4H-1,2,4-triazole]"
6,FLT-3,"CCCCSc1nnc(COc2ccc(Cl)cc2)[nH]1 [3-(butylthio)-5-((4-chlorophenoxy)methyl)-4H-1,2,4-triazole]"
7,AURORA-A; also recorded: c-TAK1,"COc1ccc(-c2nnc(SCC3CCCCC3)[nH]2)cc1 [3-(cyclohexylmethylthio)-5-(4-methoxyphenyl)-4H-1,2,4-triazole]"
8,AURORA-A; also recorded: DYRK2,"c1csc(-c2nnc(SCC3CCCCC3)[nH]2)c1 [3-(cyclohexylmethylthio)-5-(thiophen-2-yl)-4H-1,2,4-triazole]"
9,AURORA-A; also recorded: c-TAK1,"Cc1cccc(-c2nnc(SCC3CCCCC3)[nH]2)c1 [3-(cyclohexylmethylthio)-5-m-tolyl-4H-1,2,4-triazole]"
10,AURORA-A; also recorded: GSK3-α,"Cc1nnc(SCC2CCCCC2)[nH]1 [3-(cyclohexylmethylthio)-5-methyl-4H-1,2,4-triazole]"
11,FLT-3; also recorded: AURORA-A,"FC(F)(F)Oc1ccc(-c2nnc(SCC3CC3)[nH]2)cc1 [3-(cyclopropylmethylthio)-5-(4-(trifluoromethoxy)phenyl)-4H-1,2,4-triazole]"
12,PDGFRR-α and FYN,"CCSc1nnc(-c2ccc([N+](=O)[O-])cc2)n1C [3-(ethylthio)-4-methyl-5-(4-nitrophenyl)-4H-1,2,4-triazole]"
13,AURORA-A,"CCC(c1ccccc1)c1nnc(SCc2cccc3ccccc23)[nH]1 (centres unmarked) [3-(naphthalen-1-ylmethylthio)-5-(1-phenylpropyl)-4H-1,2,4-triazole]"
14,AURORA-A,"Cc1cccc(-c2nnc(SCc3cccc4ccccc34)[nH]2)c1 [3-(naphthalen-1-ylmethylthio)-5-m-tolyl-4H-1,2,4-triazole]"
15,AURORA-A; also recorded: GSK3-α,"FC(F)(F)c1cccc(-c2nnc(SCCc3ccccc3)[nH]2)c1 [3-(phenethylthio)-5-(3-(trifluoromethyl)phenyl)-4H-1,2,4-triazole]"
16,AURORA-A; also recorded: FLT-3,"c1ccc(CCSc2nnc(-c3cccs3)[nH]2)cc1 [3-(phenethylthio)-5-(thiophen-2-yl)-4H-1,2,4-triazole]"
17,AKT1,"COc1ccc(-n2c(Cc3ccccc3)nnc2SC)cc1 [3-benzyl-4-(4-methoxyphenyl)-5-(methylthio)-4H-1,2,4-triazole]"
18,AURORA-A,"Cc1ccc(CSc2nnc(Cc3ccccc3)[nH]2)cc1 [3-benzyl-5-(4-methylbenzylthio)-4H-1,2,4-triazole]"
19,AURORA-A,"Clc1ccc(Cn2c(Cc3ccccc3)nnc2SCc2ccccc2)cc1Cl [3-benzyl-5-(benzylthio)-4-(3,4-dichlorobenzyl)-4H-1,2,4-triazole]"
20,FLT-3 and PRAK and AURORA-A,"Cc1ccc(CCn2c(Cc3ccccc3)nnc2SCc2ccccc2)cc1 [3-benzyl-5-(benzylthio)-4-(4-methylphenethyl)-4H-1,2,4-triazole]"
21,AURORA-A,"c1ccc(CCn2c(Cc3ccccc3)nnc2SCc2ccccc2)cc1 [3-benzyl-5-(benzylthio)-4-phenethyl-4H-1,2,4-triazole]"
22,GSK3-α,"CCc1nnc(SCC=C(C)C)n1CCc1ccccc1 [3-ethyl-5-(3-methylbut-2-enylthio)-4-phenethyl-4H-1,2,4-triazole]"
23,AURORA-A; also recorded: GSK3-β,"Cc1nnc(SCCc2ccccc2)[nH]1 [3-methyl-5-(phenethylthio)-4H-1,2,4-triazole]"
24,AKT1,"Cc1cccc(-c2nnc(SCCN3CCOCC3)n2C)c1 [4-(2-(4-methyl-5-m-tolyl-4H-1,2,4-triazol-3-ylthio)ethyl)morpholine]"
25,PDGFRR-α,"O=[N+]([O-])c1ccc(-c2nnc(SCCN3CCOCC3)n2-c2ccccc2)cc1 [4-(2-(5-(4-nitrophenyl)-4-phenyl-4H-1,2,4-triazol-3-ylthio)ethyl)morpholine]"
26,c-TAK1,"COc1ccccc1-n1c(SCCCC(=O)O)nnc1-c1ccccc1 [4-(4-(2-methoxyphenyl)-5-phenyl-4H-1,2,4-triazol-3-ylthio)butanoic acid]"

row,Compound,protein kinase against which the compound exhibits inhibitory activity (Table 3)
1,"Cc1nnc(SCc2ccccc2)n1CCc1ccccc1 [3-(benzylthio)-5-methyl-4-phenethyl-4H-1,2,4-triazole]",GSK3-β; also recorded: GSK3-α; also recorded: c-TAK1
2,"CCCCSc1nnc(-c2ccc(Cl)c(Cl)c2)[nH]1 [3-(butylthio)-5-(3 ,4-dichlorophenyl)-4H-1,2,4-triazole]",AURORA-A; also recorded: FLT-3; also recorded: GSK3-α
3,"CCCCSc1nnc(-c2cccc(C(F)(F)F)c2)[nH]1 [3-(butylthio)-5-(3-(trifluoromethyl)phenyl)-4H-1,2,4-triazole]",AURORA-A; also recorded: FLT-3; also recorded: GSK3-α
4,"CCCCSc1nnc(-c2ccc(F)cc2)[nH]1 [3-(butylthio)-5-(4-fluorophenyl)-4H-1,2,4-triazole]",AURORA-A; also recorded: FLT-3; also recorded: DYRK2
5,"CCCCSc1nnc(-c2ccc(OC)cc2)[nH]1 [3-(butylthio)-5-(4-methoxyphenyl)-4H-1,2,4-triazole]",AURORA-A; also recorded: FLT-3; also recorded: GSK3-α
6,"CCCCSc1nnc(-c2ccccc2)[nH]1 [3-(butylthio)-5-phenyl-4H-1,2,4-triazole]",AURORA-A; also recorded: FLT-3; also recorded: c-TAK1
7,"c1ccc(-c2nnc(SCC3CCCCC3)[nH]2)cc1 [3-(cyclohexylmethylthio)-5-phenyl-4H-1,2,4-triazole]",AURORA-A; also recorded: c-TAK1; also recorded: CHEK2
8,"c1ccc(OCc2nnc(SCC3CC3)[nH]2)cc1 [3-(cyclopropylmethylthio)-5-(phenoxymethyl)-4H-1,2,4-triazole]",GSK3-α; also recorded: GSK3-β; also recorded: AURORA-A
9,"Cc1nnc(SCc2cccc3ccccc23)[nH]1 [3-methyl-5-(naphthalen-1-ylmethylthio)-4H-1,2,4-triazole]",AURORA-A; also recorded: DYRK2; also recorded: GSK3-α
10,"c1ccc(-c2nnc(SCCN3CCCC3)[nH]2)cc1 [3-phenyl-5-(2-(pyrrolidin-1-yl)ethylthio)-4H-1,2,4-triazole]",GSK3-α; also recorded: GSK3-β; also recorded: CHEK2
11,"Clc1ccc(-c2nnc(SCCN3CCOCC3)[nH]2)cc1Cl [4-(2-(5-(3,4-dichlorophenyl)-4H-1,2,4-triazol-3-ylthio)ethyl)morpholine]",AURORA-A; also recorded: GSK3-α; also recorded: GSK3-β
12,"COc1ccc(-c2nnc(SCCN3CCOCC3)[nH]2)cc1 [4-(2-(5-(4-methoxyphenyl)-4H-1,2,4-triazol-3-ylthio)ethyl)morpholine]",GSK3-α; also recorded: AURORA-A; also recorded: GSK3-β
13,"O=[N+]([O-])c1ccc(-c2nnc(SCCN3CCOCC3)[nH]2)cc1 [4-(2-(5-(4-nitrophenyl)-4H-1,2,4-triazol-3-ylthio)ethyl)morpholine]",GSK3-β; also recorded: GSK3-α; also recorded: AURORA-A
14,"c1csc(-c2nnc(SCCN3CCOCC3)[nH]2)c1 [4-(2-(5-(thiophen-2-yl)-4H-1,2,4-triazol-3-ylthio)ethyl)morpholine]",AURORA-A; also recorded: GSK3-β; also recorded: GSK3-α
15,"Cc1cccc(-c2nnc(SCCN3CCOCC3)[nH]2)c1 [4-(2-(5-m-tolyl-4H-1,2,4-triazol-3-ylthio)ethyl)morpholine]",AURORA-A; also recorded: GSK3-β; also recorded: GSK3-α
